Reference: patent US20250134860A1, “NOVEL COMPOUND, AND COMPOSITION FOR PREVENTING, ALLEVIATING OR TREATING BACTERIAL INFLAMMATION AND INFLAMMASOME-MEDIATED DISEASES, COMPRISING SAME AS ACTIVE INGREDIENT” (Quorum Bio Co., Ltd., priority 2022, published 2025)
Where “and” joins values, the source holds several entries; their conditions need not be identical. Identical values can stand only once.

Experiments:
[1] = tested on: E. coli (KCTC 2571 (ATCC 8739)); experiment: Inhibitory effect on E. coli biofilm formation; format: cell-based, Escherichia coli; settings: 0.006-4.8 μg/ml; 48 hours; compared with control (CT)
Protocol: The inhibitory effect of the compound of Example 1-2 on biofilm formation in E. coli (KCTC 2571 (ATCC 8739); available from the Korean Collection for Oral Microbiology (KCOM)) was confirmed.
Sterilized cover glass slips (round, 12 mm radius) were placed individually at a bottom of each well of a cell culture plate (24-well plate) using forceps, and the compound of Example 1-2 was diluted in the medium (LB medium) to be cultured with bacteria so that the final concentrations were 0.006 μg/ml, 0.06 μg/ml, 0.6 μg/ml, 1.2 μg/ml, 2.4 μg/ml, and 4.8 μg/ml.
The prepared culture medium was dispensed into a cell culture plate in which glass slips were placed, and the bacteria were inoculated to a concentration of 2×10^7 cells/ml. […]
The biofilm in which bacteria cultured for each group were formed on glass slips was stained with 1% crystal violet solution for 15 minutes, and then washed three times with PBS (phosphate buffered saline) solution, and decolorized with acetone-alcohol (20:80, vol/vol). After the decolorizing solution containing crystal violet was put in 200 μl increments in a 96-well microplate for each group, the absorbance (OD590nm) was measured using an absorbance microplate reader (Epoch2, Bio-Tek, USA), and the biofilm formation levels were compared.

[2] = General symptoms and body weight in the rat micronucleus study; format: in vivo
Protocol: In addition, body weight was measured on the day of administration start and bone marrow collection to confirm presence/absence of changes due to administration of the substance, and the results are shown in Table 4 below.

[3] = tested on: gingipain genes (rgpA, rgpB, kgp); experiment: Inhibitory effect on gingipain expression of P. gingivalis (RT-qPCR); format: cell-based, Porphyromonas gingivalis; settings: DPD 10 μM + compound 2 μM; 48 hours; normalized to 16s rRNA
Protocol: The compounds of Examples were respectively treated onto the medium cultured with P. gingivalis, and the expression levels of three gingipain proteins (lysine-gingipain (Kgp), arginine-gingipain A (RgpA), and arginine-gingipain B (RgpB)) produced by P. gingivalis, which are major virulence factors and proteolytic enzymes, were confirmed.
The culture medium containing 10 μM of DPD (4,5-dihydroxy-2,3-pentane dione), which is a precursor of the bacterial signal substance (Autoinducer-2), and the culture medium containing 2 μM of the example compound or not were respectively dispensed into a cell culture plate (48 well plate), and then P. gingivalis (2×10^8 cell/ml) were inoculated for each group. The culture medium cultured with bacteria was cultured at 37° C. under anaerobic conditions (10% H2, 10% CO2, and 80% N2) for 48 hours.
After 48 hours, each culture medium was centrifuged at 13,000 rpm for 1 minute to remove the supernatant, and total RNA was extracted using easy-BLUE™ Total RNA Extraction kit (iNtRON Biotechnology, Sungnam, Korea) to synthesize cDNA, and then the expression of the gingipain gene was confirmed by real-time PCR method. cDNA was synthesized using AccuPower® CycleScript RT PreMix dN6 (Bioneer, Daejeon, Korea), and real-time (quantitative) reverse transcription PCR (RT-qPCR) was carried out using Power SYBR™ Green PCR Master Mix (Applied Biosystems, Foster City, CA, USA).
RT-qPCR amplification conditions were as follows: after enzyme activation at 95° C. for 3 minutes, denaturation at 95° C. for 10 seconds and primer annealing at 60° C. for 30 seconds were repeated 40 times, and analysis was performed using a Bio-Rad CFX Connect Real-Time PCR Detection System (Bio-Rad, Hercules, CA, USA). To normalize the expression level of the gingipain gene, the 16s rRNA gene was used, and the gene expression level was calculated using the Comparative Ct Method (ΔΔCt), which is shown in FIGS. 5a to 5c.

[4] = tested on: Sprague-Dawley rat bone marrow cells; experiment: Rat micronucleus test; settings: rat, in vivo
Protocol: Hair was removed from the administration site (subcutaneous) of the SD rats, the administration concentration of the example compounds were set to a low dose (500 mg/kg/day), a medium dose (1000 mg/kg/day), and a high dose (2000 mg/kg/day), and administered subcutaneously to the left and right […] of the test system (10 ml/kg/day each), and the compound was administered subcutaneously in divided doses to the left and right […] of the test system (10 ml/kg/day each).
24 hours after the second administration of the test substance, the femur was removed from each group to collect bone marrow cells. 0.5 mL of 10% neutral formalin was added to the bone marrow cell suspension, fixed for 5 minutes, centrifuged for 5 minutes (4° C., 1,000 rpm, Micro17TR, Hanil Science Industrial, Republic of Korea) to remove the supernatant. Then, 0.3 mL of 10% neutral formalin was added to the precipitated bone marrow cells, suspended, filtered through a cell strain, and transferred to a storage tube. The fixed bone marrow cell suspension was dropped onto a cover glass, and then covered with a slide glass coated with 20 μL of 0.05% acridine orange to prepare an observation slide. The observation slide was observed under a microscope (600× magnification, BX51, Olympus, Japan).
As an indicator of bone marrow cell proliferation inhibition, 500 total red blood cells per individual were observed, and the ratio of polychromatic red blood cells to total red blood cells (PCE/(PCE+NCE)) was calculated. As a positive control, cyclophosphamide (Cas No: 50-18-0) was administered at a dose of 20 mg/kg/day.

Structure (SMILES): Cc1ccc(C(=C2c3ccccc3C(=O)N2C)c2ccc(C)cc2)cc1 [Example 1-2, 3-(di-p-tolylmethylene)-2-methylisoindolin-1-one]
- biofilm formation of E. coli [1]: significantly suppressed in a concentration-dependent manner
- Body weight (g) before 1st dosing ([2]; 500 mg/kg/day S.C., individual animals 1201-1205): 263.4 g
- Body weight (g) before 1st dosing ([2]; 1,000 mg/kg/day S.C., individual animals 1301-1305): 266.3 g and 251.3 g and 272.4 g
- Body weight (g) before 1st dosing, Mean ([2]; 2,000 mg/kg/day S.C., group mean): 266.9 g
- Body weight (g) before 1st dosing ([2]; 2,000 mg/kg/day S.C., individual animals 1401-1405): 266.2 g
- change in body weight compared to the negative control ([2]; all doses (500, 1000, 2000 mg/kg/day S.C.)): did not show a statistically significant change
- clinical signs in rats ([2]; all doses (500, 1000, 2000 mg/kg/day S.C.), observation period): no abnormal clinical signs
- expression levels of three gingipain genes (rgpA, rgpB, kgp) increased by DPD [3]: reduced
- ratio of polychromatic red blood cells to the total number of red blood cells, relative to negative control ([4]; Sprague-Dawley, 24 h): ≥ 20 % of the negative control
- appearance frequency of micronucleated polychromatic erythrocytes (MNPCE/PCE) compared to the negative control [4]: did not show a statistically significant difference
